# Patent publication US11867660B2, “Electronic control of the pH of a solution close to an electrode surface” (Robert Bosch GmbH, priority 2015, dated 2024)
# Key:
# [1] = Electro-oxidation/reduction of species at indium tin oxide electrode (voltammetry); type: physicochemical
# Text: FIG. 7B: Cyclic voltammetric study of the oxidation of Ascorbic acid test in ITO electrodes. Current increase around 0.25V indicates the start of oxidation at ITO electrodes.
# Electrode material used: The electrode material was indium tin oxide. This is a semiconducting electrode surface with very large potential window in an aqueous solution.
# Oxidation of ascorbic acid at the electrode surfaces produced H^+ ions and changed the electrode surface pH to a more acidic state: AH2→A+2H^++2e^−, where AH2 is ascorbic acid ([…]) (as shown in FIG. 5). The electrode potential at which it oxidizes was less than 0.5V for Indium tin oxide material vs Ag/AgCl reference electrode (as shown in FIG. 7). This potential was less than the voltages needed for the oxygen evolution reaction in aqueous solution. Higher electrode potential (e.g. >1V for ITO electrodes in just phosphate buffer) can damage the PEG layer (as shown in FIG. 8). The ascorbic acid also acted as a sacrificial species to prevent electrochemical degradation of the surface chemistry.
# Reduction of benzoquinone (C6H4O2) into Hydroquinone (C6H6O2) can produce OH− ions at −0.1V: BQ+2e^−+2H2O→HQ+2OH^− This reduction reaction increased the pH at the electrode interface.
# [2] = molecular target: Green Fluorescent Protein (GFP) (Aequorea victoria, UniProt P42212); test: GFP fluorescence intensity after incubation with benzoquinones (protein stability); type: biochemical; details: 0.5 mM benzoquinone, phosphate buffered saline, 30 min
# Text: Para-benzoquinones and ortho-benzoquinones (compounds 2, 4, 6, and 9 in FIG. 22) are susceptible to nucleophilic attack at the double bond of the ring (positions 2, 3, 5 and 6 in structure 2 of FIG. 22, positions 3, 4, 5 and 6 in structure 4 of FIG. 22, and positions 2 and 3 in structure 6 of FIG. 22). Introducing substituents at some or all of those positions can mitigate the problem of nucleophilic attack. For example, 1,4-benzoquinone (structure 2 in FIG. 22, where R1, R2, R3 and R4 are H) undergoes Michael addition reaction with amino groups of proteins (Loomis et al., Phytochemistry, 5, 423, (1966) and U.S. Pat. No. 6,753,312 B2). […] Fluorescence intensity of Green Fluorescent Protein (GFP) was measured after incubation with three different benzoquinones in phosphate buffered saline for 30 min (concentration of benzoquinones was 0.5 mM). The difference in fluorescence intensity indicates the varied effect that the different substitutions in benzoquinones have on the stability of GFP. Fluorescence intensity of GFP is indicative of its structural integrity. Losses in fluorescence intensity usually indicate loss of its tertiary structure (protein denaturation) (Yin D. X., Zhu L., Schimke R. T. Anal. Biochem. 1996, 235:195-201).
Structure (SMILES),"start of oxidation (current increase), cyclic voltammetry ([1]; ITO electrodes)",electrode potential at which it oxidizes ([1]; Indium tin oxide vs Ag/AgCl reference electrode),loss in GFP fluorescence intensity [2] [%],potential of reduction into hydroquinone producing OH- ions [1] [V]
O=C1O[C@H]([C@@H](O)CO)C(O)=C1O [ascorbic acid],around 0.25 V,less than 0.5 V,–,–
"O=C1C=CC(=O)C=C1 [unsubstituted benzoquinone, 1,4-benzoquinone]",–,–,25,−0.1
